# Assay results as given in patent publication US12251370B2, “Small molecule inhibitors of the BfrB:Bfd interaction” (BOARD OF SUPERVISORS OF LOUISIANA STATE UNIVERSITY AND …, priority 2018, dated 2025).
# pIC50: −log10 of the molar value. “And” between values parts separate entries of the source, which are not always exact repeats. Identical values can stand only once.
# Legend:
# [1] = system: wild type P. aeruginosa cells; experiment: Growth response of wild type cells to analog (viable cell count); assay type: cell-based, Pseudomonas aeruginosa; conditions: M63 + 4 μM Fe; 15 h post-inoculation; viable cells vs untreated control
# Procedure: (§1) To this end, wild type and ΔbfrB cells were cultured in M63 media supplemented with 4 μM Fe, in the presence of different concentrations of analog. […] Since BfrB is not essential, it is likely that the cell can compensate for the absence of the iron storage protein. […] The sudden onset of toxicity observed in the second phase, which is not observed with the wild type cells, is probably related to off-target effects that expose a fitness vulnerability caused by the absence of BfrB. Consequently, it is possible to conclude that the dose-dependent growth defect elicited by 11 or 16 on wild type P. aeruginosa cells is largely a consequence of the interaction between the small molecule inhibitors and BfrB in the bacterial cell. This issue was investigated in additional detail (see below) by probing the phenotypic and biochemical response of wild type cells treated with the small molecule inhibitors.
# P. aeruginosa cells = experiment: microbe, parasite or virus in culture; assay type: cell-based, Pseudomonas aeruginosa; conditions: 13 h
# Procedure: These experiments were carried out in 96 well plates, as described above. […] The 500-fold diluted solution was centrifuged and the cell-free supernatant was analyzed for pyoverdin by fluorescence spectrophotometry in a Synergy H1 microplate reader (BioTek) with excitation at 400 nm and emission at λmax=455 nm. Full emission spectra (430-550 nm) were also recorded using a Perkin Elmer LS50B spectrophotometer.
# As indicated above, genetic manipulations were used in prior work to delete the bfd gene (Δbfd) and evaluate the consequences of inhibiting the BfrB-Bfd interaction in P. aeruginosa.^18 Preventing the BfrB-Bfd interaction in the Δbfd mutant cells dysregulates iron homeostasis by causing the irreversible accumulation of iron in BfrB and the concomitant depletion of free iron levels in the cytosol. […] To analyze the levels of secreted pyoverdin, cells were pelleted and the supernatant was diluted 500-fold prior to measuring the fluorescence intensity at 455 nm (FIG. 7B).
# P. aeruginosa PAO1 = experiment: Effect of analogs on the potency of fluoroquinolone antibiotics, strain PAO1; assay type: cell-based, Pseudomonas aeruginosa; conditions: PAO1
# Procedure: The combined treatment was carried out similarly, ensuring that the final concentration of DMSO was 2%.
# [2] = system: ΔbfrB P. aeruginosa cells; experiment: Growth response of bfrB deletion mutant cells to analog; assay type: cell-based, Pseudomonas aeruginosa; conditions: M63 + 4 μM Fe; 15 h post-inoculation; viable cells vs untreated control
# Procedure: as §1
# P. aeruginosa = experiment: Growth curves and IC50 determination in P. aeruginosa; assay type: cell-based, Pseudomonas aeruginosa (PAO1); conditions: Pseudomonas aeruginosa; M63 media; growth % from OD600 at 13 h; three independent experiments
# Procedure: Pre-cultures (5 mL LB media) were grown for 12 h at 37° C. and 220 rpm in 50 mL conical tubes (VWR International, PA) covered with an air permeable membrane. The cells were then centrifuged at 4,000 rpm for 10 min, the resultant cell pellets washed twice in M63 media and then diluted in M63 media to OD600=0.01. Stock solutions (100 mM) of analog in DMSO were prepared weekly and stored at 4° C. Prior to initiating experiments in 96 well plates, the analog stock solution was serially diluted to make 10 mM or 1 mM working solutions in DMSO. A small volume of the appropriate working solution was transferred to a glass vial, diluted with DMSO to 30 μL, and then diluted to a final volume of 1.5 mL with pre-culture cell suspension with an OD600=0.01. The resultant cell suspension (200 μL) was transferred to a clear-bottom polystyrene 96 well plate (VWR), and incubated at 35° C. and 205 cpm for 13 h in an Epoch 2 microplate spectrophotometer (Biotek Instruments, Inc., Vermont). The growth curve in the presence of Ciprofloxacin was obtained in the same plate. […] MIC determinations were carried out using standard broth microdilution methods in 48 well plates and modified M63 media. Cells were incubated at 35° C.
structure (smiles),measurement,setting,value
"O=C1NC(=O)c2c(NCCCc3cccc(O)c3)cccc21 [Analog 16, 4-((3-(3-Hydroxyphenyl)propyl)amino)isoindoline-1,3-dione]",growth response of wild type cells,[1],monophasic dose-dependent growth defect
same,viability at 125 µM,"P. aeruginosa cells; Pseudomonas aeruginosa, read-out: viable cells relative to untreated control",~30%
same,"pyoverdin secreted, fluorescence normalized to viable cells (CFU/mL), relative to untreated control","P. aeruginosa cells; analog 125 μM, emission 455 nm",~4.5 fold and ~4 fold
same,"% survival, fold lower relative to ciprofloxacin alone",P. aeruginosa PAO1; analog 16 125 μM + ciprofloxacin 0.25 μg/mL,approximately 50 fold
same,"cell survival, fold lower relative to fluoroquinolone alone",P. aeruginosa PAO1; analog 16 125 μM + levofloxacin 0.5 μg/mL,approximately 50 fold
same,"cell survival, fold lower relative to fluoroquinolone alone",P. aeruginosa PAO1; analog 16 125 μM + norfloxacin 0.9 μg/mL,approximately 50 fold
same,survival relative to untreated control,"P. aeruginosa PAO1; analog 16 only, 125 μM, 18 h",~30%
same,growth response of ΔbfrB mutant cells,[2],biphasic growth response
same,pIC50,P. aeruginosa,3.92
